Values quoted from earlier work, collected in article PMC12040969, “Design, synthesis, in silico studies, and apoptotic antiproliferative activity of novel thiazole-2-acetamide derivatives as tubulin polymerization inhibitors” (Frontiers in Chemistry, 2025).

System: tubulin
Parameters: method as in El-Abd et al., 2022
Settings: ref El-Abd et al., 2022; read-out: Tubulin polymerization IC50; cited from earlier work

| Structure (SMILES) | IC50 [µM] |
| --- | --- |
| COc1cc(-c2csc(NC(=O)CNc3ccc([N+](=O)[O-])cc3)n2)cc(OC)c1OC [IV] | 2 ± 0.12 |
